For test [1], the system named is Quadruplex DNA. As to the kind of experiment: Stabilization of 5'-FAM/3'-TAMRA labeled human F21T G-quadruplex DNA assessed as change in melting temperature at 0.5 uM by FRET assay. The test is classed as nucleic-acid assay.
Test [2] relates to Quadruplex DNA. As to the kind of experiment: Stabilization of 5'-FAM/3'-TAMRA labeled c-KIT1 G-quadruplex DNA (unknown origin) assessed as change in melting temperature at 0.5 uM by FRET assay. The test is classed as nucleic-acid assay.
Test [3] relates to Quadruplex DNA. As to the kind of experiment: Stabilization of 5'-FAM/3'-TAMRA labeled c-KIT2 G-quadruplex DNA (unknown origin) assessed as change in melting temperature at 0.5 uM by FRET assay. Type of test: nucleic-acid assay.
Test [4] has as its system Quadruplex DNA. The experiment in a line: Stabilization of 5'-FAM/3'-TAMRA labeled BCL-2 promoter G-quadruplex DNA (unknown origin) assessed as change in melting temperature at 0.5 uM by FRET assay. Type of test: nucleic-acid assay.
The test system of a further test is dsDNA. As to the kind of experiment: Stabilization of 5'-FAM/3'-TAMRA labeled duplex DNA (unknown origin) assessed as change in melting temperature at 0.5 uM by FRET assay. The test is classed as nucleic-acid assay.
The nature of test [5]: Antiproliferative activity against imatinib-susceptible human GIST882 cells harboring c-KIT K642E mutant after 96 hrs by SRB assay. Type of test: functional. The note with it: GIST882, 96 h. (The SRB assay estimates cell density from bound dye.)
Test [6] is described as follows: Antiproliferative activity against imatinib-resistant human GIST48 cells harboring c-KIT V560D/D820A double mutant after 96 hrs by SRB assay. The test is classed as functional. The note with it: GIST48, 96 h.
A short description of test [7]: Antiproliferative activity against imatinib-resistant human GIST62 cells after 96 hrs by SRB assay. The test is classed as functional.
Another test concerns HGC-27. The experiment in a line: Antiproliferative activity against human HGC27 cells after 96 hrs by SRB assay. The test is classed as functional, cell-based. The note with it: HGC-27, 96 h.
A short description of test [8]: Stabilization of 5'-FAM/3'-TAMRA labeled 5'-UTR BCL-2 G-quadruplex RNA (unknown origin) assessed as change in melting temperature at 0.5 uM by FRET assay.
Test [9] is described as follows: Stabilization of 5'-FAM/3'-TAMRA labeled 5'-UTR BCL-2 G-quadruplex RNA (unknown origin) assessed as melting temperature at 0.5 uM in presence of KCl by FRET assay.
Test [10] can be described thus: Stabilization of 5'-FAM/3'-TAMRA labeled 5'-UTR BCL-2 G-quadruplex RNA (unknown origin) assessed as melting temperature at 0.5 uM in presence of NaCl by FRET assay.
The next test has as its system HT-29. As to the kind of experiment: Antiproliferative activity against human HT-29 cells after 96 hrs by SRB assay. Type of test: functional, cell-based. The note with it: HT-29, 96 h.
In test [11] the target is Telomerase reverse transcriptase (Homo sapiens) (UniProt O14746). As to the kind of experiment: Inhibition of telomerase activity in imatinib-resistant human GIST48 cells harboring c-KIT V560D/D820A double mutant at 0.05 to 0.30 uM incubated for 1 week by Sybr green staining based TRAP-PCR method.
Test [12] has the same target. The experiment in a line: Inhibition of telomerase activity in imatinib-susceptible human GIST882 cells harboring c-KIT K642E mutant at 0.5 uM incubated for 1 week by Sybr green staining based TRAP-PCR method.
Test [13] deals with Quadruplex DNA. The experiment in a line: Stabilization of c-KIT G-quadruplex DNA in imatinib-resistant human GIST48 cells harboring c-KIT V560D/D820A double mutant assessed as downregulation of c-KIT protein expression at 1 uM after 24 hrs by immunoblot analysis relative to control.
The test system of test [14] is Quadruplex DNA. The experiment in a line: Stabilization of c-KIT G-quadruplex DNA in imatinib-resistant human GIST48 cells harboring c-KIT V560D/D820A double mutant assessed as downregulation of c-KIT protein expression at 1 uM after 1 week by immunoblot analysis relative to control.
Test [15] has as its system Quadruplex DNA. As to the kind of experiment: Stabilization of c-KIT G-quadruplex DNA in imatinib-susceptible human GIST882 cells harboring c-KIT K642E mutant assessed as downregulation of c-KIT protein expression at 1 uM after 24 hrs by immunoblot analysis relative to control. (Immunoblotting shows a protein as a band on a membrane.)
The species entered for another test is Homo sapiens. As to the kind of experiment: Stabilization of 5'-UTR BCL-2 G-quadruplex RNA in imatinib-resistant human GIST48 cells harboring c-KIT V560D/D820A double mutant at 0.3 uM after 1 week by immunoblot analysis relative to control.
Test [16] is described as follows: Stabilization of 5'-UTR BCL-2 G-quadruplex RNA (unknown origin) transfected in imatinib-susceptible human GIST882 cells harboring c-KIT K642E mutant assessed as decrease in RNA translation by dual luciferase reporter gene assay.
Test [17] in a line: Stabilization of 5'-UTR BCL-2 G-quadruplex RNA (unknown origin) transfected in imatinib-susceptible human GIST882 cells harboring c-KIT K642E mutant assessed as decrease in RNA translation at 10 uM by dual luciferase reporter gene assay relative to control. Set-up: scale not given: the % may be the effect or the level left.
For the next test, the system named is MCF7. The experiment in a line: Antiproliferative activity against human MCF7 cells after 96 hrs by SRB assay. Type of test: functional, cell-based. The note with it: MCF7, 96 h.

Each structure is given as a SMILES string. The source made the active and inactive calls. The rule behind the calls is not given here.

In general, ΔTm refers to the change in melting temperature against a reference sample. One may read the IC50 as the concentration at which inhibition is half-maximal.

Chain of Telomerase reverse transcriptase (Homo sapiens) (O14746 whole entry): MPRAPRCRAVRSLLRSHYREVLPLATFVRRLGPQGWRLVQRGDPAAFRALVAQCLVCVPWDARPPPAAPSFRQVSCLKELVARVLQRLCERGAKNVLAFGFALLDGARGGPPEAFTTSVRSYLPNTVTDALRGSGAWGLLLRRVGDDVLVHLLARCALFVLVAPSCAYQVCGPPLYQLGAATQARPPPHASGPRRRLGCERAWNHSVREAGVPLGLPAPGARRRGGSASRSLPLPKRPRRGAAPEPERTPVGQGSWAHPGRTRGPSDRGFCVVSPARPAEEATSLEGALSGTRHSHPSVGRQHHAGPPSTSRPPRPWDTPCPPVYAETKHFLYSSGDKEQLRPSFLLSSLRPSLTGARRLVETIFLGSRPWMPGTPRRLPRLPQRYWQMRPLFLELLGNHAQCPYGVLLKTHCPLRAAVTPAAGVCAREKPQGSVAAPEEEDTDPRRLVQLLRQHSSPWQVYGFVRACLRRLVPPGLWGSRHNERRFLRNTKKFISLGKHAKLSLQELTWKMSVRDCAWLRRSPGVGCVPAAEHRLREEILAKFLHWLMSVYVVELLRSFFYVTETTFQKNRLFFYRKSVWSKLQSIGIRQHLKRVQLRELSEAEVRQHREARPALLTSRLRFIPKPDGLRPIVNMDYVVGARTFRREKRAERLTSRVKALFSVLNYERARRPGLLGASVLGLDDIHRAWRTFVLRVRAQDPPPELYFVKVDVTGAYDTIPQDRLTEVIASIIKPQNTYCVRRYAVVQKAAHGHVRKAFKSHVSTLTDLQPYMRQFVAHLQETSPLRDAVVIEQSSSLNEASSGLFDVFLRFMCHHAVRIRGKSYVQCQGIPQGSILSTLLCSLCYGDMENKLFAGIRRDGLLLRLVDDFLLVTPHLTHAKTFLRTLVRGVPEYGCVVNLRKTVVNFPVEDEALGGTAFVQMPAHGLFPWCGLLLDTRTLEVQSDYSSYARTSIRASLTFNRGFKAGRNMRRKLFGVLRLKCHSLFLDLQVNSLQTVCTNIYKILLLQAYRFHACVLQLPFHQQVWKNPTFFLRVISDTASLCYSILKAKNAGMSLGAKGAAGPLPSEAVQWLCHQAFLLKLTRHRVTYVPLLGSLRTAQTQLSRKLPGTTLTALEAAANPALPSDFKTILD

As for `CN(C)c1ccc(Nc2c3ccc(NC(=O)CCN4CCCC4)cc3nc3cc(NC(=O)CCN4CCCC4)ccc23)cc1`, the ΔTm with Quadruplex DNA [1] worked out at 21.6 °C; in the test with Quadruplex DNA [2], 6.5 °C; in the test on Quadruplex DNA [3] it was 18.5 °C; in the test on Quadruplex DNA [4], 17.9 °C; in the test with dsDNA, 7.2 °C. Besides, the IC50 in [5] is more than 25000 nM; in test [6] it was more than 25 µM; in test [7], more than 25 µM; in the test on HGC-27, 2300 nM.

As to `O=C1c2cc(NCCN3CCCC3)c3c4c(cc(NCCN5CCCC5)c(c24)C(=O)N1CCN1CCCC1)C(=O)N(CCN1CCCC1)C3=O`, the ΔTm in the test with Quadruplex DNA [1] was determined as 29.7 °C; in the test on Quadruplex DNA [2], 11.2 °C; with Quadruplex DNA [3] it was 29 °C; in the test on Quadruplex DNA [4], 27.6 °C; in [8], 10.7 °C; with dsDNA, 3.5 °C. In addition, the figures for the Tm in test [9] and in test [10] were 91 °C and 64.5 °C, respectively. In addition, the IC50 worked out at 1600 nM in test [5]; 0.5 µM in test [6]; 0.4 µM in [7]; 40 nM with HT-29; 100 nM with HGC-27. In addition, the inhibition result in [11] was “inactive”. Further, the inhibition entry in test [12] was “Active”. The Activity in the test with Quadruplex DNA [13] was 17%; in the test on Quadruplex DNA [14] it was 37%; in the test with Quadruplex DNA [15] it was 90%; in the test filed under Homo sapiens it was 85%; in test [16], “Dose-dependent effect”; in test [17], 30%.

In the case of `Cc1ccc(NC(=O)c2ccc(CN3CCN(C)CC3)cc2)cc1Nc1nccc(-c2cccnc2)n1` [IMATINIB], the ΔTm with Quadruplex DNA [1] was 0.2 °C; in the test on Quadruplex DNA [2] it was 0.2 °C; with Quadruplex DNA [3], 0.2 °C; in the test on Quadruplex DNA [4] it was 0.1 °C; in test [8], 0.1 °C; in the test with dsDNA it was 0.1 °C. Also, the IC50 is 1700 nM in test [5], 19.8 µM in test [6], more than 25 µM in [7] and 11.3 µM with MCF7.

For the origin of these results see ChEMBL document CHEMBL4118155, “A naphthalene diimide G-quadruplex ligand inhibits cell growth and down-regulates BCL-2 expression in an imatinib-resistant gastrointestinal cancer cell line” (Bioorg Med Chem, 2018).
